# Measured values as given in ChEMBL document CHEMBL6083285 (J Med Chem, 2024).
# Activity calls are given as the source filed them. No cut-off for these calls is given here.
# Experiments:
# [1] = Metabolic stability in human hepatocytes assessed as intrinsic clearance measured per 10^6 cells at 100 uM incubated upto 60 mins by UPLC-MS/MS analysis; format: ADME, cell-based, Hepatocyte; details: read-out: CLH
# [2] = Metabolic stability in rat hepatocytes assessed as intrinsic clearance measured per 10^6 cells at 100 uM incubated upto 60 mins by UPLC-MS/MS analysis; format: ADME, cell-based, Hepatocyte; details: read-out: CLH
# [3] = Metabolic stability in pooled rat liver microsomes assessed as intrinsic clearance at 1 uM measured upto 45 mins in presence of NADPH by UPLC-MS/MS analysis; format: ADME, Microsome; details: read-out: CLH
# [4] = Metabolic stability in mouse hepatocytes assessed as intrinsic clearance measured per 10^6 cells at 100 uM incubated upto 60 mins by UPLC-MS/MS analysis; format: ADME, cell-based, Hepatocyte; details: read-out: CLH
# MDR1 [5] = assay: Efflux ratio of permeability across apical to basolateral side in pig LLC-PK1 cells transfected with MDR1; format: ADME, cell-based, Sus scrofa
# [6] = Protein binding in human plasma assessed as unbound fraction at 5 uM incubated for 4 hrs by UPLC-MS analysis; format: ADME, cell-free
# [7] = Lipophilicity, logD of compound at pH 7.4; format: physicochemical; details: buffer
# [8] = Oral bioavailability in male Sprague-Dawley rat at 10 mg/kg measured after 24 hrs by LC-MS analysis; format: ADME, organism-based; details: in vivo
# [9] = Protein binding in rat plasma assessed as unbound fraction at 5 uM incubated for 4 hrs by UPLC-MS analysis; format: ADME, cell-free
# [10] = Inhibition of NLRP3 inflammasome activation mediated pyroptosis in LPS-stimulated human THP-1 cells preincubated for 3 hrs followed by nigericin addition and measured after 1 hrs by resazurin dye based assay; format: cell-based
# [11] = Metabolic stability in pooled human liver microsomes assessed as intrinsic clearance at 1 uM measured upto 45 mins in presence of NADPH by UPLC-MS/MS analysis; format: ADME, Microsome; details: read-out: CLH
# [12] = Kinetic solubility of compound; format: physicochemical; details: read-out: Kinetic_solubility
# [13] = Volume of distribution at steady state in male Sprague-Dawley rat at 10 mg/kg, po or 1 mg/kg, iv measured after 24 hrs by LC-MS analysis; format: ADME, organism-based; details: in vivo
# [14] = Inhibition of NLRP3 inflammasome activation in LPS-stimulated human whole blood assessed as reduction in IL-1beta release preincubated for 3 hrs followed by nigericin addition and measured after 1 hrs by Alphalisa method; format: tissue-based
# [15] = Metabolic stability in pooled mouse liver microsomes assessed as intrinsic clearance at 1 uM measured upto 45 mins in presence of NADPH by UPLC-MS/MS analysis; format: ADME, Microsome; details: read-out: CLH
# Mus musculus = assay: In vivo inhibition of NLRP3 inflammasome activation in LPS/ATP-induced acute inflammatory mouse model assessed as reduction in IL-1beta release in plasma at 100 mg/kg, po preadministered with compound for 1 hrs followed by LPS stimulation for 2 hrs and measured after 30 mins of ATP addition; format: functional, organism-based; details: time 3.5 hrs
# MDR1 [16] = assay: Permeability across apical to basolateral side in pig LLC-PK1 cells transfected with MDR1; format: ADME, cell-based, Sus scrofa; details: read-out: permeability
# [17] = Protein binding in mouse plasma assessed as unbound fraction at 5 uM incubated for 4 hrs by UPLC-MS analysis; format: ADME, cell-free
# [18] = Half-life in male Sprague-Dawley rat at 10 mg/kg, po or 1 mg/kg, iv measured after 24 hrs by LC-MS analysis; format: ADME, organism-based; details: in vivo
# [19] = Volume of distribution at steady state in male Sprague-Dawley rat at 1 mg/kg, iv measured after 24 hrs by LC-MS analysis; format: ADME, organism-based; details: in vivo, read-out: Vdss
# [20] = Half-life in male Sprague-Dawley rat at 1 mg/kg, iv measured after 24 hrs by LC-MS analysis; format: ADME, organism-based; details: in vivo
# BCRP [21] = assay: Efflux ratio of permeability in MDCK-II-BCRP cells at 5 uM incubated for 2 hrs by LC-MS/MS analysis; format: ADME, cell-based, Canis lupus familiaris; details: dog
# MDR1 [22] = assay: Permeability in MDCKII-MDR1 cells at 5 uM incubated for 2 hrs by LC-MS/MS analysis; format: ADME, cell-based, Canis lupus familiaris; details: dog, MDCK-MDR1, read-out: permeability
# [23] = Clearance in male Sprague-Dawley rat at 1 mg/kg, iv measured after 24 hrs by LC-MS analysis; format: ADME, organism-based; details: in vivo
# BCRP [24] = assay: Permeability in MDCK-II-BCRP cells at 5 uM incubated for 2 hrs by LC-MS/MS analysis; format: ADME, cell-based, Canis lupus familiaris; details: dog, read-out: permeability
# MDR1 [25] = assay: Efflux ratio of permeability in MDCKII-MDR1 cells at 5 uM incubated for 2 hrs by LC-MS/MS analysis; format: ADME, cell-based, Canis lupus familiaris; details: dog, MDCK-MDR1
# [26] = AUC (0 to infinity) in male Sprague-Dawley rat at 1 mg/kg, iv measured after 24 hrs by LC-MS analysis; format: ADME, organism-based; details: in vivo
# Homo sapiens = species on record: Homo sapiens; assay: Selectivity ratio of IC50 for inhibition of NLRP3 inflammasome activation in LPS-stimulated human whole blood assessed as reduction in IL-1beta release to IC50 for inhibition of NLRP3 inflammasome activation mediated pyroptosis in LPS-stimulated human THP-1 cells
smiles,measurement,setting,value
CC(C)c1c(F)ccc2c1CC(=O)NS(=O)(=O)c1cn(nc1F)C(C)(C)COc1cc-2ccn1,hepatocyte CLint at 100 µM,[1],< 10.3 µL/min/1e6 cells
same,hepatocyte CLint at 100 µM,[2],< 10.3 µL/min/1e6 cells
same,microsomal CLint at 1 µM,[3],3.7 µL/min/mg
same,hepatocyte CLint at 100 µM,[4],< 10.3 µL/min/1e6 cells
same,efflux ratio,MDR1 [5],6.4
same,"fraction unbound at 4 h, 5 µM",[6],0.023
same,logD,[7],1.02
same,bioavailability,[8],36%
same,"fraction unbound at 4 h, 5 µM",[9],0.003
same,IC50,[10],0.013 µM
same,microsomal CLint at 1 µM,[11],< 7.7 µL/min/mg
same,solubility kinetic,[12],0.371 mg/mL
same,Vdss,[13],1.12 L/kg
same,IC50,[14],0.225 µM
same,microsomal CLint at 1 µM,[15],10.2 µL/min/mg
same,inhibition,Mus musculus,Active
same,Papp A→B,MDR1 [16],5.7 nm/s
same,"fraction unbound at 4 h, 5 µM",[17],0.0126
same,half-life,[18],0.9 h
COc1cc(-c2cc(F)cc(C(C)C)c2CC(=O)NS(=O)(=O)c2cnn(C3CC3)c2)ccn1,hepatocyte CLint at 100 µM,[1],< 8 µL/min/1e6 cells
same,Vd,[19],13.3 L/kg
same,hepatocyte CLint at 100 µM,[2],< 8 µL/min/1e6 cells
same,microsomal CLint at 1 µM,[3],< 15.4 µL/min/mg
same,half-life,[20],16.4 h
same,"efflux ratio at 2 h, 5 µM",BCRP [21],38
same,efflux ratio,MDR1 [5],3.6
same,"fraction unbound at 4 h, 5 µM",[6],0.01
same,logD,[7],0.9
same,"Papp at 2 h, 5 µM",MDR1 [22],88 nm/s
same,"fraction unbound at 4 h, 5 µM",[9],0.019
same,IC50,[10],0.533 µM
same,clearance,[23],0.66 L/h/kg
same,"Papp at 2 h, 5 µM",BCRP [24],53 nm/s
same,"efflux ratio at 2 h, 5 µM",MDR1 [25],21
same,Papp A→B,MDR1 [16],1.7 nm/s
same,AUC(0-inf),[26],1.51 µg·h/mL
same,"fraction unbound at 4 h, 5 µM",[17],0.017
O=C1Nc2c(ccc3c2CCC3)-c2ccnc(c2)OCCCCn2ccc(n2)S(=O)(=O)N1,IC50,[10],0.176 µM
same,IC50,[14],0.784 µM
CC(C)n1ccc(S(=O)(=O)NC(=O)Nc2c(-c3ccnc(OC4CCOCC4)c3)ccc3c2CCC3)n1,logD,[7],0.35
same,IC50,[10],0.062 µM
same,IC50,[14],1 µM
same,Ratio IC50,Homo sapiens,16
CC(C)c1cccc2c1CC(=O)NS(=O)(=O)c1cnn(c1)C1(CCC1)COc1cc-2ccn1,IC50,[10],0.052 µM
same,IC50,[14],0.204 µM
COc1cc(-c2ccc3c(c2NC(=O)NS(=O)(=O)c2cn(C(C)C)cn2)CCC3)ccn1,IC50,[10],0.061 µM
same,IC50,[14],0.621 µM
CC1(C)COc2cc(ccn2)-c2c(F)cc3c(c2NC(=O)NS(=O)(=O)c2nn1cc2F)CCC3,IC50,[10],0.008 µM
same,IC50,[14],0.125 µM
CC(C)c1cccc2c1CC(=O)NS(=O)(=O)c1ccn(n1)C(C)(C)COc1cc-2ccn1,IC50,[10],1.7 µM
COc1cc(-c2ccc3c(c2NC(=O)NS(=O)(=O)c2cnn(C(C)C)c2)CCC3)ccn1,IC50,[10],0.016 µM
same,microsomal CLint at 1 µM,[11],45 µL/min/mg
same,IC50,[14],0.338 µM
COc1cc(-c2ccc3c(c2NC(=O)NS(=O)(=O)c2nn(C(C)C)cc2F)CCC3)ccn1,IC50,[10],0.008 µM
same,IC50,[14],0.23 µM
CC(C)c1cccc2c1CC(=O)NS(=O)(=O)c1cnn(c1)C1(CCCC1)COc1cc-2ccn1,IC50,[10],0.105 µM
same,IC50,[14],0.506 µM
CC(C)c1cccc2c1CC(=O)NS(=O)(=O)c1cnn(c1)C(C)(C)COc1cc-2ccn1,IC50,[10],0.166 µM
same,IC50,[14],0.42 µM
Cc1cc2c(c3c1-c1ccnc(c1)OCC(C)(C)n1cc(F)c(n1)S(=O)(=O)NC(=O)N3)CCC2,IC50,[10],0.004 µM
same,IC50,[14],0.102 µM
COc1cc(-c2ccc3c(c2NC(=O)NS(C)(=O)=O)CCC3)ccn1,IC50,[10],1.01 µM
COc1cc(-c2ccc3c(c2NC(=O)NS(=O)(=O)c2cnn(C(C)C)n2)CCC3)ccn1,IC50,[10],0.058 µM
same,IC50,[14],0.814 µM
CC(C)c1cccc2c1CC(=O)NS(=O)(=O)c1cnn(n1)C(C)(C)COc1cc-2ccn1,IC50,[10],1.68 µM
COc1cc(-c2ccc3c(c2NC(=O)NS(=O)(=O)c2ccnc(C(C)C)c2)CCC3)ccn1,IC50,[10],0.023 µM
same,IC50,[14],1.6 µM
CC(C)n1ccc(S(=O)(=O)NC(=O)Nc2c(-c3ccnc(OC4CCN(C)C4)c3)ccc3c2CCC3)n1 (stereo not given),logD,[7],-0.5
same,IC50,[10],0.8 µM
CC(C)c1cccc2c1CC(=O)NS(=O)(=O)c1cnn(c1)C(C)(C1CC1)COc1cc-2ccn1 (stereo not given),IC50,[10],0.031 µM
same,IC50,[14],0.441 µM
CC(C)n1ccc(S(=O)(=O)NC(=O)Nc2c(-c3ccnc(Oc4ccccc4)c3)ccc3c2CCC3)n1,logD,[7],1.2
same,IC50,[10],0.059 µM
same,IC50,[14],5.94 µM
same,Ratio IC50,Homo sapiens,16
